{"source": "patent US6271369A", "about": "“Chimeric molecules targeted to viral RNAs” (priority 1997, dated 2001)", "key": {"TAR:A25 :vif RNA": {"test_system": "TAR:A25 :vif RNA", "assay": "Site-directed cleavage of TAR:A25:vif RNA in Daudi cell extract", "type": "biochemical, HIV-1", "from_the_text": "To determine the ability of the 2-5A:AS chimeric molecule SEQ ID NO:1 to induce site-directed RNA cleavage, a target RNA was constructed having an internal 3',5'-oligo(rA) tract. Hybridization between the (dT18) in SEQ ID NO:1 with the oligo(rA) in the target RNA attracts 2-5A-dependent RNase to the target RNA, resulting in a highly specific cleavage event. The experimental target, TAR:A25 :vif RNA, was produced in vitro from a pSP64-derived plasmid containing a partial cDNA for the HIV vif protein interrupted with 25 adenylyl residues. A control TAR:vif RNA was constructed with the A25 tract deleted. These RNA species, which lack 3'-poly(rA) tails, were radiolabeled at their 3'-termini with [5'-^32 p)-pCp by T4 RNA ligase and gel purified prior to the assay.\nThe 2-5A:AS strategy for site-directed RNA cleavage was next tested in a cell-free system consisting of a postribosomal supernatant fraction of human lymphoblastoid Daudi cells.\nDaudi cell extracts prepared with dounce homogenization were made by the well known method of Wreschner, et al. in a buffer containing 40mM KCl; 10 mM HEPES pH 7.5; 2.5mM magnesium acetate; 0.5mM ATP; 2.5% glycerol and 2.0mM mercaptoethanol. The extract used in the RNA cleavage assays was the supernatant of a 100,000 ×g centrifugation of cell extract. About 100 nM radiolabeled RNA (approximately 25,000 counts/min/assay) was incubated with oligonucleotides at 30° C. in extract (10μl) supplemented with 75mM KCl in a final volume of 20 μl. Reactions were terminated and the RNA was extracted with phenollchloroform. The RNA was then ethanol precipitated and redissolved in sterile water and an equal volume of formamide gel sample buffer. Cleavage products were analyzed in 6% polyacrylamide/8M urea gels (30×40×0.04cm).\nThe cleavage reaction was performed after adding SEQ ID NO:l and purified radiolabeled TAR:A25 :vif RNA to the Daudi cell extract (without preannealing) followed by incubation at 30° C. In the absence of added oligonucleotide, the TAR:A25 :vif RNA was degraded with a half-life of about 90 minutes.\nAn experiment was conducted to analyze (A) the in vitro transcription of AccI restriction endonuclease-digested plasmids containing TAR:A25 :vif and TAR:vif sequences and (B) the specific cleavage of TAR:A25 ;vif RNA induced by SEQ ID NO:1 (100nM) in extracts of Daudi cells as a function of time. The breakdown of TAR:A25 :vif RNA (intact RNA) was proportional to the appearance of the specific cleavage product. Data was obtained by running a gel with the products of the experiment and then making an autoradiogram of the dried gel. The autoradiogram was then subjected to image analysis with a video camera (Sierra Scientific) and the QUICKCAPTURE.COPYRGT. (Marlboro, Mass.) and IMAGE.COPYRGT. computer programs run on a MACINTOSH IIci.cndot. computer. The percentage of RNA shown in FIG. 6 was based on the sum of the intact RNA and the specific RNA cleavage product.\nCleavage of TAR:A25 :vif RNA (about 100 nM) as a function of SEQ ID NO:1 concentration was also measured. The cleavage reaction was allowed to continue for 30 minutes in Daudi cell extract at 30° C. The levels of the specific cleavage products (relative peak areas) were determined from an autoradiogram as described in relation to FIG. 6 above. The results shown in FIGS. 6 and 7 were reproduced three times."}, "2-5A-dependent RNase": {"test_system": "2-5A-dependent RNase", "assay": "Radiobinding (nitrocellulose filter) competition assay for 2-5A-dependent RNase in mouse liver extract", "type": "binding", "procedure": "SEQ ID NO:1, SEQ ID NO:2, Chimeric Molecule 3, and Chimeric Molecule 4 were tested for their ability to bind to 2-5A-dependent RNase in vitro. The affinity of these 2-5A:AS constructs for 2-5A-dependent RNase was established with a highly specific radiobinding assay. This radiobinding assay measured the ability of 2-5A or 2-5A analogs to compete with a ^32 P-labeled 2-5A probe, ppp5'A2'p5'A2'p5'A2'p5'A3'-[^32 p]p5'C3'p, for binding to 2-5A-dependent RNase. The nitrocellulose filter binding assay of Knight et al. (Methods Enzymol. , 79: 216 (1981)) was used to measure the concentrations of 2-5A or the chimeric 2-5A:AS molecule required to compete with the radiolabeled probe, ppp5'A2'-p5'A2'p5'A2'p5A3'[^32 P]p5C3'p, for binding to 2-5A-dependentRNase in a mouse liver extract.\nFIGS. 3A and 3B show the relative affinities of SEQ ID NO:1 (.tangle-solidup.) and 2-5A (ppp5'A2'p5'A2'p5'A) (.circle-solid.) for 2-5A-dependent RNase. A measure of 100% binding was found in the absence of any unlabeled oligonucleotide. The data for SEQ ID NO:1 and 2-5A in these figures represent the means and standard deviations from 6 and 7 assays, respectively."}, "poly(A)": {"test_system": "poly(A)", "assay": "UV absorbance-temperature profile (melting) of complex with poly(A)", "type": "physicochemical", "conditions": "40 mM KH2PO4 pH 7.0", "procedure": "We also compared the melting temperature of poly (A) with the melting temperature of SEQ ID NO:1 (FIG. 4). For this experiment, 1000 μL of 3.2×10^-6 M poly(A) in KH2 PO4 buffer (pH 7.0, 40 mM) was mixed with 1000 μL of 2.9 ×10^-6 M SEQ ID NO:1 in KH2 PO4 buffer, and the resulting mixture was incubated at 4° overnight before determination of melting temperature. At/Ai refers to the ratio of absorbance (At) at a given temperature compared to the absorbance (Ai) at the initial temperature (25-30° ). No -attempt was made to determine complex stoichiometry (2- or 3-stranded). Under similar conditions, an equimolar mixture of poly(A) and oligo(dT)20 gave a complex with a Tm of 40° (data not shown).\nThe effect of the 2-5A moiety of SEQ ID NO:1 on the ability of the dT18 region to anneal with its complementary poly (A) sequence as determined from UV absorbance-temperature profiles is shown in FIG. 4."}, "[1]": {"conditions": "about 100 nM RNA, 30 minutes, 30° C., FIG. 7"}}, "note": "“Also recorded” adds a separate entry of the source."}
{"substance": "p5'A2'(p5'A2')2 P5'A2'p1[OCH2 (CH2)2 CH2 O]4p1[OCH2 (CH2)2 CH2 O]4p5'pdT3'(p5'dt3')16 p5'dt (AAAATTTTTTTTTTTTTTTTTT; chemistry not fully specified) [SEQ ID NO:1]", "values": [{"measurement": "incubation time for 50% breakdown to the specific cleavage product", "setting": "TAR:A25 :vif RNA; 100 nM, Daudi extract, 30° C., FIG. 6", "value": 20, "unit": "min"}, {"measurement": "incubation time after which breakdown to cleavage product could be seen clearly", "setting": "TAR:A25 :vif RNA; Daudi extract, 30° C.", "value": 5, "unit": "min"}, {"measurement": "specific cleavage of TAR:A25:vif RNA", "setting": "TAR:A25 :vif RNA; Daudi extract, 30° C., 30 minutes", "value": "nearly quantitative conversion of the intact RNA to a specific cleavage product; also recorded: Specific cleavage of the substrate was observed"}, {"measurement": "lowest concentration at which cleavage reaction was observed", "setting": "TAR:A25 :vif RNA; [1]", "value": 25, "unit": "nM"}, {"measurement": "optimal concentration for the cleavage reaction", "setting": "TAR:A25 :vif RNA; [1]", "value": 250, "unit": "nM"}, {"measurement": "increase of rate of breakdown of TAR:A25:vif RNA", "setting": "TAR:A25 :vif RNA; versus no added oligonucleotide (half-life about 90 minutes)", "value": "more than four-fold"}, {"measurement": "IC50 / ability to bind 2-5A-dependent RNase compared with unmodified 2-5A", "setting": "2-5A-dependent RNase; compared with ppp5'A2'p5'A2'p5'A, FIG. 3A", "value": "very little, if any, decrease in the IC50"}, {"measurement": "binding affinity to 2-5A-dependent RNase when annealed to complementary sequence", "setting": "2-5A-dependent RNase; mixed with excess poly(A), FIG. 3B", "value": "no significant change in the binding affinity"}, {"measurement": "melting temperature (Tm) of complex with poly(A)", "setting": "poly(A)", "value": "approximately 38 °C"}, {"measurement": "hypochromicity on mixing with poly(A)", "setting": "poly(A); 3.2×10^-6 M poly(A) + 2.9×10^-6 M", "value": 17, "unit": "%"}]}
